Measurements published in US10681908B2, “Molecules having pesticidal utility, and intermediates, compositions, and processes, related thereto” (Dow AgroSciences LLC, priority 2016, dated 2020).

Tests used:
Assay type in all cases: in vivo
[1] = test system: Cabbage Looper (Trichoplusia ni, TRIPNI); assay: Bioassay on Cabbage Looper (CL), 128-well diet tray assay; conditions: 168 h, 50 μg/cm^2 on artificial diet, second instar larvae, five to seven days, 25° C., read-out: CL % Control (or Mortality) rating
Summary of the method: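 Percent mortality, averaged over eight wells, scored after five to seven days at 25° C. under 14:10 light-dark. Each well held 1–5 second-instar larvae on artificial diet treated with 50 μg/cm^2 test molecule applied in 90:10 acetone-water and dried.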

[2] = test system: Green Peach Aphid (Myzus persicae, MYZUPE); assay: Bioassay on Green Peach Aphid (GPA), foliar spray on infested cabbage seedlings; conditions: 72 h, 200 ppm foliar spray, three days, Abbott corrected % control, read-out: GPA % Control (or Mortality) rating
Description: Example B: Bioassays on Green Peach Aphid (Myzus Persicae, MYZUPE) (“GPA”)
Certain molecules disclosed in this document were tested against GPA using procedures described in the following example. In the reporting of the results, the “GPA & YFM Rating Table” was used (See Table Section).
Cabbage seedlings grown in 3-inch pots, with 2-3 small (3-5 cm) true leaves, were used as test substrate. The seedlings were infested with 20-50 GPA (wingless adult and nymph stages) one day prior to chemical application. Four pots with individual seedlings were used for each treatment. Test molecules (2 mg) were dissolved in 2 mL of acetone/methanol (1:1) solvent, forming stock solutions of 1000 ppm test molecule. The stock solutions were diluted 5× with 0.025% Tween 20 in water to obtain the solution at 200 ppm test molecule. A hand-held aspirator-type sprayer was used for spraying a solution to both sides of […] leaves until runoff. Reference plants (solvent check) were sprayed with the diluent only containing 20% by volume of acetone/methanol (1:1) solvent. Treated plants were held in a holding room for three days at approximately 25° C. and ambient relative humidity (RH) prior to grading. Evaluation was conducted by counting the number of live aphids per plant under a microscope. Percent Control was measured by using Abbott's correction formula (W. S. Abbott, “A Method of Computing the Effectiveness of an Insecticide” J. Econ. Entomol. 18 (1925), pp. 265-267) as follows. Corrected % Control=100*(X−Y)/X • where • X=No. of live aphids on solvent check plants and • Y=No. of live aphids on treated plants

[3] = test system: Beet Armyworm (Spodoptera exigua, LAPHEG); assay: Bioassay on Beet Armyworm (BAW), 128-well diet tray assay; conditions: 168 h, 50 μg/cm^2 on artificial diet, second instar larvae, five to seven days, 25° C., read-out: BAW % Control (or Mortality) rating
Summary of the method: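 Mortality of second-instar larvae (one to five per well) was scored after five to seven days at 25 °C under 14:10 light-dark and averaged across eight wells. Each well's diet had received 50 μg/cm^2 test molecule from a 90:10 acetone-water solution, allowed to dry before infestation.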

[4] = test system: Yellow Fever Mosquito (Aedes aegypti, AEDSAE); conditions: about 1 day-old larvae, 3 days, room temperature, scored on mortality
Summary of the method: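 Compounds from DMSO master plates (4000 ppm stock) diluted with 90:10 water:acetone, then about 1-day-old larvae in liver-powder water added. Held covered at room temperature for 3 days; each well scored for mortality.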

Structure (SMILES)	mortality at 50 µg/cm2 [1] [%]	mortality at 200 ppm [2] [%]	mortality at 50 µg/cm2 [3] [%]	YFM % Control (or Mortality) rating [4]
C[C@H](CS(=O)(=O)CC(F)(F)F)NC(=O)c1ccc(/C(F)=C/C(c2cc(Br)c(Cl)c(Br)c2)C(F)(F)F)cc1C(F)(F)F (stereo partly drawn) [F22, 4-((Z)-3-(3,5-Dibromo-4-chlorophenyl)-1,4,4,4-tetrafluorobut-1-en-1-yl)-N—((R)-1-((2,2,2-trifluoroethyl)sulfonyl)propan-2-yl)-2-(trifluoromethyl)benzamide]	50 to 100	0 to 80	50 to 100	A (80-100)
C[C@H](C[S+]([O-])CCC#N)NC(=O)c1ccc(/C(F)=C/C(c2cc(Cl)c(Cl)c(Cl)c2)C(F)(F)F)cc1C(F)(F)F (stereo partly drawn) [F122, N-((2R)-1-((2-Cyanoethyl)sulfinyl)propan-2-yl)-4-((Z)-1,4,4,4-tetrafluoro-3-(3,4,5-trichlorophenyl)but-1-en-1-yl)-2-(trifluoromethyl)benzamide]	50 to 100	0 to 80	50 to 100	A (80-100)
C[C@H](CSCC(F)(F)F)NC(=O)c1ccc(/C(F)=C/C(c2cc(Br)c(Cl)c(Br)c2)C(F)(F)F)cc1C(F)(F)F (stereo partly drawn) [F21, 4-((Z)-3-(3,5-Dibromo-4-chlorophenyl)-1,4,4,4-tetrafluorobut-1-en-1-yl)-N—((R)-1-((2,2,2-trifluoroethyl)thio)propan-2-yl)-2-(trifluoromethyl)benzamide]	50 to 100	80 to 100	50 to 100	A (80-100)
C[C@H](CS(=O)(=O)CC(F)(F)F)NC(=O)c1ccc(/C(F)=C/C(c2cc(Cl)c(C(F)F)c(Cl)c2)C(F)(F)F)cc1C(F)(F)F (stereo partly drawn) [F104]	50 to 100	0	50 to 100	A (80-100)
C[C@H](CS(=O)(=O)CCC#N)NC(=O)c1ccc(/C(F)=C/C(c2cc(Cl)c(Cl)c(Cl)c2)C(F)(F)F)cc1C(F)(F)F (stereo partly drawn) [F123, N—((R)-1-((2-cyanoethyl)sulfonyl)propan-2-yl)-4-((Z)-1,4,4,4-tetrafluoro-3-(3,4,5-trichlorophenyl)but-1-en-1-yl)-2-(trifluoromethyl)benzamide]	50 to 100	0	50 to 100	A (80-100)
CCS(=O)(=O)C[C@@H](C)NC(=O)c1ccc(/C(F)=C/C(c2ccc(Cl)c(Cl)c2)C(F)(F)F)cc1C(F)(F)F (stereo partly drawn) [F46, 4-((Z)-3-(3,4-Dichlorophenyl)-1,4,4,4-tetrafluorobut-1-en-1-yl)-N—((R)-1-(ethylsulfonyl)propan-2-yl)-2-(trifluoromethyl)benzamide]	50 to 100	0 to 80	50 to 100	B (More than 0-Less than 80)
